From PubChem BioAssay (NCI) come the findings set out here.

Structures are written as SMILES.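 Five concentrations, 48 hours, 96-well plates. TGI denotes the concentration required for complete inhibition of growth.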

Test systems include TK-10 renal; NCI-H23 lung; SK-MEL-28 melanoma; NCI-H522 lung; UACC-62 melanoma; BT-549 breast; COLO 205 colon; SW-620 colon; CAKI-1 renal; HOP-92 NSCLC; MDA-MB-435; ACHN renal; PC-3 prostate; HT29 colon; SK-MEL-5 melanoma; MDA-MB-231 breast; SF-268 CNS; K-562 leukemia; MDA-N.
Common to all, as to assay: inhibition of tumour cell growth, NCI panel, 48 h

Regarding `CSCCCNC(=O)c1csc(-c2csc(CCN)n2)n1`, the TGI with TK-10 renal, with NCI-H23 lung, with SK-MEL-28 melanoma, with NCI-H522 lung, in the assay with UACC-62 melanoma and with BT-549 breast was greater than 100 µM throughout. Moreover, the TGI in the assay on COLO 205 colon, in the assay on SW-620 colon, in the assay on CAKI-1 renal, in the assay on HOP-92 NSCLC, in the assay on MDA-MB-435 and with ACHN renal was greater than 100 µM throughout. For the same molecule, the TGI in the assay on PC-3 prostate, in the assay with HT29 colon, in the assay with SK-MEL-5 melanoma, with MDA-MB-231 breast, in the assay on SF-268 CNS and with K-562 leukemia was greater than 100 µM in each case.
For the molecule `NC1=CN(Cc2ccccc2)C2=N/C(=C\c3ccccc3)C(=O)N12`, the TGI in the assay with TK-10 renal, with NCI-H23 lung, with SK-MEL-28 melanoma, with NCI-H522 lung, in the assay on UACC-62 melanoma and in the assay on BT-549 breast was greater than 100 µM in each case. The TGI in the assay on COLO 205 colon, with SW-620 colon, in the assay on CAKI-1 renal, with HOP-92 NSCLC, in the assay on MDA-MB-435 and with ACHN renal was greater than 100 µM in each case. Moreover, the TGI in the assay with PC-3 prostate, in the assay with HT29 colon, in the assay on SK-MEL-5 melanoma, in the assay with MDA-MB-231 breast, in the assay with SF-268 CNS and with K-562 leukemia was greater than 100 µM in each case.
Regarding `CC(C)[Si](OC1=C(C(=O)N(C)c2ccccc2Cl)CCCC1)(C(C)C)C(C)C`, the TGI in the assay on TK-10 renal is 29.5 µM; in the assay on NCI-H23 lung, 31.4 µM; in the assay on SK-MEL-28 melanoma, 37.4 µM; with NCI-H522 lung it was 19.2 µM; in the assay on UACC-62 melanoma it was 34 µM; in the assay on COLO 205 colon, 29.3 µM. Also, the TGI is 33.3 µM in the assay with SW-620 colon; 27.3 µM in the assay on CAKI-1 renal; 26.3 µM with HOP-92 NSCLC; 31.2 µM in the assay with MDA-MB-435; 29.5 µM in the assay on ACHN renal; 24.4 µM with PC-3 prostate. Further, the TGI with HT29 colon was 32.3 µM; in the assay with SK-MEL-5 melanoma, 27.5 µM; in the assay on MDA-MB-231 breast, 31.3 µM; in the assay on MDA-N it was 34.3 µM; in the assay with SF-268 CNS it was 29.2 µM; in the assay with K-562 leukemia, greater than 100 µM.
As to `NCCCCN(CCCN)Cc1ccccc1`, the TGI with TK-10 renal, in the assay with NCI-H23 lung, in the assay with SK-MEL-28 melanoma, in the assay with NCI-H522 lung, in the assay on UACC-62 melanoma and in the assay on BT-549 breast was greater than 100 µM in each case. Moreover, the TGI in the assay on COLO 205 colon, in the assay with SW-620 colon, in the assay on CAKI-1 renal, in the assay with HOP-92 NSCLC, in the assay with MDA-MB-435 and with ACHN renal was greater than 100 µM in each case. Moreover, the TGI in the assay with PC-3 prostate, in the assay with HT29 colon, in the assay with SK-MEL-5 melanoma, in the assay with MDA-MB-231 breast, with SF-268 CNS and with K-562 leukemia was greater than 100 µM in each case.
For `COc1ccc(C2CC(=O)CC(c3ccc(OC)cc3)C23C(=O)NC(=S)NC3=O)cc1` (stereo not drawn), the TGI in the assay with TK-10 renal, with NCI-H23 lung, in the assay on SK-MEL-28 melanoma, with NCI-H522 lung, with UACC-62 melanoma and with BT-549 breast was greater than 100 µM in each case. Further, the TGI in the assay on COLO 205 colon, in the assay with SW-620 colon, with CAKI-1 renal, with HOP-92 NSCLC, in the assay with MDA-MB-435 and in the assay with ACHN renal was greater than 100 µM in each case. In addition, the TGI in the assay on PC-3 prostate, in the assay with HT29 colon, in the assay with SK-MEL-5 melanoma, with MDA-N, in the assay with SF-268 CNS and in the assay on K-562 leukemia was greater than 100 µM throughout.
Regarding `CN(C)c1nc(=NCc2cccs2)ss1`, the TGI with TK-10 renal is greater than 10 µM; in the assay with NCI-H23 lung, greater than 10 µM; in the assay on SK-MEL-28 melanoma it was greater than 10 µM; in the assay with NCI-H522 lung, 9.57 µM; in the assay on UACC-62 melanoma, greater than 10 µM; with COLO 205 colon, greater than 10 µM. Further, the TGI in the assay with SW-620 colon, with CAKI-1 renal, with HOP-92 NSCLC, with MDA-MB-435, with ACHN renal and in the assay with PC-3 prostate was greater than 10 µM in each case. For the same molecule, the TGI in the assay on HT29 colon, in the assay on SK-MEL-5 melanoma, in the assay on MDA-MB-231 breast, in the assay on MDA-N, with SF-268 CNS and in the assay on K-562 leukemia was greater than 10 µM each time.
With `CCCCCCCCCCCCCCCCOCC(COP(=O)([O-])OCC[n+]1ccc(N(C)C)cc1)OCC` (stereo not drawn), the TGI was 28.9 µM in the assay with TK-10 renal; 35.9 µM with NCI-H23 lung; 32.4 µM in the assay on SK-MEL-28 melanoma; 29.2 µM with NCI-H522 lung; 29 µM in the assay with UACC-62 melanoma; 20.2 µM in the assay on BT-549 breast. In addition, the TGI in the assay on COLO 205 colon is 26.5 µM; in the assay with SW-620 colon, 37.2 µM; in the assay with HOP-92 NSCLC, 32.6 µM; in the assay with MDA-MB-435, 31.6 µM; in the assay with ACHN renal it was 30.9 µM; in the assay on HT29 colon, 28 µM. The TGI with SK-MEL-5 melanoma was determined as 31.6 µM; in the assay with MDA-MB-231 breast, 22.5 µM; with MDA-N, 30.8 µM; with SF-268 CNS it was 25.7 µM; in the assay with K-562 leukemia, 36.6 µM.
`O=C1Nc2cc([N+](=O)[O-])ccc2C(=O)N2CCC[C@@H]12`: the TGI with TK-10 renal, in the assay on NCI-H23 lung, with SK-MEL-28 melanoma, in the assay on NCI-H522 lung, in the assay with UACC-62 melanoma and in the assay on BT-549 breast was greater than 100 µM in each case. In addition, the TGI in the assay with COLO 205 colon, in the assay on SW-620 colon, with CAKI-1 renal, with HOP-92 NSCLC, in the assay on MDA-MB-435 and with ACHN renal was greater than 100 µM in each case. Also, the TGI in the assay on PC-3 prostate, in the assay on HT29 colon, with SK-MEL-5 melanoma, in the assay with MDA-MB-231 breast, in the assay on SF-268 CNS and with K-562 leukemia was greater than 100 µM throughout.
